Measurements reported in patent US20210353614A1, “COMPOUNDS AND USES THEREOF TO TREAT TUMORS IN A SUBJECT” (Merck Patent GMBH, priority 2018, published 2021).
Where two headings read alike, the source gives them in different places.

Key:
[1] = test system: colon cancer cell line; assay: Immunogenic cell death induction (calreticulin, HSP70, HSP90 surface expression, ATP and HMGB1 release, caspase-3/7); assay type: cell-based
Description: […]. The inhibitor for ATM and SN38 were tested as single agents and in combination at the concentrations of the GI50 of the combination. The GI50 of SN38 was included as a positive control for induction of immunogenic cell death. […] Cell surface expression of calreticulin, HSP70 and HSP90 was analysed by Flow Cytometry, ATP secretion by ATPlite assay Perkin Elmer, HMGB1 release by HMGB1 Elisa (IBL International) and apoptosis by Caspase-Glo 3/7 Assay Systems (measures caspase-3/7 activities).
Analyses of DAMPs (Calreticulin, HSP70, HSP90, HMGB1 and ATP) were carried out whithin the same sample. Cells were treated 24 hours after seeding and analyses performed 72 hours post-treatment. Cells were used for FACS analyses and supenatants for ATP and HMGB1 measurements. Caspase-Glo 3/7 was carried out in parallel following the same treatment schedule.
For FACS analyses, an unstained sample was used as a gating control and an isotype sample to measure unspecific antibody binding. % PE positive cells represent cells with cell surface expression of the tested marker (all markers were conjugated with PE and tested independently). ATP secretion, HMGB1 release and apoptosis were carried out accordingly to the protocols provided by the commercial supplier (data represented as the average of two independent biological repeats).

[2] = test system: colon cancer cell line; assay: GI50 of SN38 and of the combination with ATMi2; assay type: cell-based
[3] = test system: human colon cancer xenograft model SW620; assay: CRC xenograft model, ATM inhibitors in combination with irinotecan; assay type: in vivo, mice
Description: Animals were treated with three 1-week cycles of a combination of irinotecan and the respective ATM inhibitors, or the respective monotherapy control arms. One cycle consisted of one irinotecan application (ip) at a dose of 50 mg/kg, followed by 100, and 50 mg/kg of ATMi 1, or 10 and 25 mg/kg of ATMi 2 (po) 24 h later and for four subsequent days.

[4] = combination ATMi 2 25 mg/kg + irinotecan, d28
[5] = combination ATMi 2 25 mg/kg po + irinotecan 50 mg/kg ip, day 21

CCc1c2c(nc3ccc(O)cc13)-c1cc3c(c(=O)n1C2)COC(=O)[C@]3(O)CC [SN38, reference compound]
induction of immunogenic cell death ([1]; SN38 at its GI50 (2 nM), 72 hours post-treatment): clear induction of immunogenic cell death
induction of immunogenic cell death ([1]; SN38 single agent at 0.4 nM, 72 hours post-treatment): not
GI50 ([2]; SN38 as single agent, read-out: GI50): 2 nM
GI50 ([2]; in combination with 250 nM ATMi2, read-out: GI50 of the combination (SN38 concentration)): 0.4 nM

CCc1c2c(nc3ccc(OC(=O)N4CCC(N5CCCCC5)CC4)cc13)-c1cc3c(c(=O)n1C2)COC(=O)[C@]3(O)CC [irinotecan, reference compound]
disease status ([3]; irinotecan arm, day 28): all animals showed progressive disease

COc1cc2ncc3c(c2cc1-c1cn(C)nc1C)n(-c1c(F)cncc1OC)c(=O)n3C [ATMi 2, 8-(1,3-Dimethyl-1H-pyrazol-4-yl)-1-(3-fluoro-5-methoxy-pyridin-4-yl)-7-methoxy-3-methyl-1,3-dihydro-imidazo[4,5-c]quinolin-2-one]
induction of immunogenic cell death ([1]; ATMi2 single agent at 250 nM, 72 hours post-treatment): not
induction of immunogenic cell death ([1]; combination 250 nM ATMi2 + 0.4 nM SN38, 72 hours post-treatment): clear induction of immunogenic cell death
GI50 ([2]; in combination with 0.4 nM SN38, read-out: GI50 of the combination (ATMi2 concentration)): 250 nM
partial responses (tumor volume >30% decrease) [3, 4]: 2/10
stable diseases (tumor volume change between 30% decrease and 73% increase) [3, 4]: 3/10
animals progression free (<73% increase in tumor volume compared to starting volume) ([3]; combination ATMi 2 25 mg/kg + irinotecan, d28, one week after stop of treatment): 5/10
decrease of mean tumor volume compared to starting volume [3, 5]: ~87%
mean tumor volume [3, 5]: 53 mm^3
